Data taken from PubChem BioAssay (NCI).
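Values below derive from 48-hour exposures of cells grown in 96-well plates, with endpoints linearly interpolated between the two concentrations bracketing the appropriate inhibition level. Abbreviation: GI50, concentration required for 50% inhibition of growth. TGI: concentration producing complete growth inhibition.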

Experiments:
Assay in all cases: NCI-60 cell line screen, 48 h
SK-OV-3 ovarian = system: SK-OV-3 ovarian
HOP-92 NSCLC = system: HOP-92 NSCLC
SNB-19 CNS = system: SNB-19 CNS
RPMI-8226 leukemia = system: RPMI-8226 leukemia
NCI/ADR-RES ovarian = system: NCI/ADR-RES ovarian
SF-295 CNS = system: SF-295 CNS
MDA-MB-435 = system: MDA-MB-435
KM12 colon = system: KM12 colon
TK-10 renal = system: TK-10 renal
OVCAR-3 ovarian = system: OVCAR-3 ovarian
PC-3 prostate = system: PC-3 prostate
NCI-H460 lung = system: NCI-H460 lung
SN12C renal = system: SN12C renal
OVCAR-4 ovarian = system: OVCAR-4 ovarian
NCI-H226 lung = system: NCI-H226 lung
IGROV1 ovarian = system: IGROV1 ovarian
OVCAR-8 ovarian = system: OVCAR-8 ovarian
SW-620 colon = system: SW-620 colon
T-47D breast = system: T-47D breast
MDA-MB-231 breast = system: MDA-MB-231 breast
MOLT-4 leukemia = system: MOLT-4 leukemia
HOP-62 NSCLC = system: HOP-62 NSCLC
OVCAR-5 ovarian = system: OVCAR-5 ovarian
CAKI-1 renal = system: CAKI-1 renal
SNB-75 CNS = system: SNB-75 CNS
HS 578T breast = system: HS 578T breast
U251 CNS = system: U251 CNS
HCT-15 colon = system: HCT-15 colon
SK-MEL-2 melanoma = system: SK-MEL-2 melanoma
SR leukemia = system: SR leukemia
A549 NSCLC = system: A549 NSCLC
DU-145 prostate = system: DU-145 prostate
NCI-H23 lung = system: NCI-H23 lung
SF-268 CNS = system: SF-268 CNS
CCRF-CEM leukemia = system: CCRF-CEM leukemia
SK-MEL-28 melanoma = system: SK-MEL-28 melanoma
A498 renal = system: A498 renal
UACC-257 melanoma = system: UACC-257 melanoma
HL-60(TB) leukemia = system: HL-60(TB) leukemia
M14 melanoma = system: M14 melanoma
ACHN renal = system: ACHN renal
HT29 colon = system: HT29 colon
SK-MEL-5 melanoma = system: SK-MEL-5 melanoma
LOX IMVI melanoma = system: LOX IMVI melanoma
HCC-2998 colon = system: HCC-2998 colon
UACC-62 melanoma = system: UACC-62 melanoma
NCI-H522 lung = system: NCI-H522 lung
K-562 leukemia = system: K-562 leukemia
SF-539 CNS = system: SF-539 CNS
786-0 renal = system: 786-0 renal
HCT-116 colon = system: HCT-116 colon
UO-31 renal = system: UO-31 renal
COLO 205 colon = system: COLO 205 colon
MCF7 breast = system: MCF7 breast
BT-549 breast = system: BT-549 breast
EKVX NSCLC = system: EKVX NSCLC

CC(C)=CCC/C(C)=C/CC/C(C)=C/CC/C(C)=C/CSC[C@H](NC(=O)CCCCCN1CCN(C)CC1)C(=O)NC1CCCCC1
GI50 (SK-OV-3 ovarian): 13 µM
TGI (SK-OV-3 ovarian): 32.5 µM
GI50 (HOP-92 NSCLC): 2.13 µM
TGI (HOP-92 NSCLC): 11.3 µM
GI50 (SNB-19 CNS): 2.27 µM
TGI (SNB-19 CNS): 5.71 µM
GI50 (RPMI-8226 leukemia): 2.14 µM
TGI (RPMI-8226 leukemia): 5.13 µM
GI50 (NCI/ADR-RES ovarian): 8.98 µM
TGI (NCI/ADR-RES ovarian): 33.8 µM
GI50 (SF-295 CNS): 1.74 µM
TGI (SF-295 CNS): 3.51 µM
GI50 (MDA-MB-435): 1.66 µM
TGI (MDA-MB-435): 3.07 µM
GI50 (KM12 colon): 2.03 µM
TGI (KM12 colon): 4.01 µM
GI50 (TK-10 renal): 11.7 µM
TGI (TK-10 renal): 30.5 µM
GI50 (OVCAR-3 ovarian): 2.66 µM
TGI (OVCAR-3 ovarian): 6.49 µM
GI50 (PC-3 prostate): 1.76 µM
TGI (PC-3 prostate): 3.49 µM
GI50 (NCI-H460 lung): 1.94 µM
TGI (NCI-H460 lung): 3.73 µM
GI50 (SN12C renal): 2.36 µM
TGI (SN12C renal): 6.19 µM
GI50 (OVCAR-4 ovarian): 3.51 µM
TGI (OVCAR-4 ovarian): 15.5 µM
GI50 (NCI-H226 lung): 24 µM
TGI (NCI-H226 lung): 98.2 µM
GI50 (IGROV1 ovarian): 2.91 µM
TGI (IGROV1 ovarian): 7.76 µM
GI50 (OVCAR-8 ovarian): 3.4 µM
TGI (OVCAR-8 ovarian): 14.3 µM
GI50 (SW-620 colon): 1.91 µM
TGI (SW-620 colon): 3.81 µM
GI50 (T-47D breast): 2.31 µM
TGI (T-47D breast): 7.02 µM
GI50 (MDA-MB-231 breast): 2 µM
TGI (MDA-MB-231 breast): 3.84 µM
GI50 (MOLT-4 leukemia): 3.17 µM
TGI (MOLT-4 leukemia): 8.44 µM
GI50 (HOP-62 NSCLC): 8.63 µM
TGI (HOP-62 NSCLC): 32.2 µM
GI50 (OVCAR-5 ovarian): 2.05 µM
TGI (OVCAR-5 ovarian): 5.25 µM
GI50 (CAKI-1 renal): 3.08 µM
TGI (CAKI-1 renal): 11 µM
GI50 (SNB-75 CNS): 4.16 µM
TGI (SNB-75 CNS): 21 µM
GI50 (HS 578T breast): 3.54 µM
TGI (HS 578T breast): 17.4 µM
GI50 (U251 CNS): 1.81 µM
TGI (U251 CNS): 3.52 µM
GI50 (HCT-15 colon): 1.78 µM
TGI (HCT-15 colon): 3.47 µM
GI50 (SK-MEL-2 melanoma): 4.11 µM
TGI (SK-MEL-2 melanoma): 14.5 µM
GI50 (SR leukemia): 2.44 µM
TGI (SR leukemia): 6.27 µM
GI50 (A549 NSCLC): 3.36 µM
TGI (A549 NSCLC): 14 µM
GI50 (DU-145 prostate): 2.08 µM
TGI (DU-145 prostate): 4.07 µM
GI50 (NCI-H23 lung): 4.73 µM
TGI (NCI-H23 lung): 23.4 µM
GI50 (SF-268 CNS): 4.05 µM
TGI (SF-268 CNS): 17.5 µM
GI50 (CCRF-CEM leukemia): 2.51 µM
TGI (CCRF-CEM leukemia): 7.67 µM
GI50 (SK-MEL-28 melanoma): 1.79 µM
TGI (SK-MEL-28 melanoma): 3.43 µM
GI50 (A498 renal): 14.4 µM
TGI (A498 renal): 34.2 µM
GI50 (UACC-257 melanoma): 2.09 µM
TGI (UACC-257 melanoma): 4.93 µM

CS(=O)(=O)O[C@H]1C(=O)N(c2cc3c4ccccc4ccc3c3ccccc23)[C@@H]1c1ccccc1
GI50 (SK-OV-3 ovarian): 2.31 µM
TGI (SK-OV-3 ovarian): > 100 µM
TGI (HOP-92 NSCLC): > 100 µM
GI50 (HL-60(TB) leukemia): 0.532 µM
TGI (HL-60(TB) leukemia): > 100 µM
GI50 (M14 melanoma): 0.809 µM
TGI (M14 melanoma): > 100 µM
TGI (SNB-19 CNS): > 100 µM
GI50 (ACHN renal): 0.332 µM
TGI (ACHN renal): > 100 µM
GI50 (RPMI-8226 leukemia): 0.844 µM
TGI (RPMI-8226 leukemia): > 23.5 µM
GI50 (HT29 colon): 0.474 µM
TGI (HT29 colon): > 100 µM
GI50 (NCI/ADR-RES ovarian): 0.206 µM
TGI (NCI/ADR-RES ovarian): 0.94 µM
GI50 (SF-295 CNS): 0.0995 µM
TGI (SF-295 CNS): 0.4 µM
GI50 (SK-MEL-5 melanoma): 0.766 µM
TGI (SK-MEL-5 melanoma): > 33.5 µM
GI50 (MDA-MB-435): 0.0232 µM
TGI (MDA-MB-435): 0.0923 µM
GI50 (LOX IMVI melanoma): 0.526 µM
TGI (LOX IMVI melanoma): > 100 µM
GI50 (KM12 colon): 0.216 µM
TGI (KM12 colon): > 100 µM
GI50 (TK-10 renal): 0.616 µM
TGI (TK-10 renal): > 86.9 µM
GI50 (HCC-2998 colon): 0.439 µM
TGI (HCC-2998 colon): 5.64 µM
GI50 (UACC-62 melanoma): 0.24 µM
TGI (UACC-62 melanoma): > 100 µM
GI50 (OVCAR-3 ovarian): 0.0617 µM
TGI (OVCAR-3 ovarian): 0.278 µM
GI50 (PC-3 prostate): 0.561 µM
TGI (PC-3 prostate): > 100 µM
GI50 (NCI-H460 lung): 1.59 µM
TGI (NCI-H460 lung): > 100 µM
GI50 (NCI-H522 lung): 1.11 µM
TGI (NCI-H522 lung): 5.65 µM
GI50 (K-562 leukemia): 0.731 µM
TGI (K-562 leukemia): > 100 µM
GI50 (SN12C renal): 0.567 µM
TGI (SN12C renal): > 100 µM
GI50 (SF-539 CNS): 0.71 µM
TGI (SF-539 CNS): 1.76 µM
GI50 (OVCAR-4 ovarian): > 100 µM
TGI (OVCAR-4 ovarian): > 100 µM
GI50 (NCI-H226 lung): > 100 µM
TGI (NCI-H226 lung): > 100 µM
GI50 (IGROV1 ovarian): > 100 µM
TGI (IGROV1 ovarian): > 100 µM
TGI (OVCAR-8 ovarian): > 100 µM
GI50 (SW-620 colon): 0.874 µM
TGI (SW-620 colon): > 100 µM
GI50 (T-47D breast): > 100 µM
TGI (T-47D breast): > 100 µM
GI50 (MDA-MB-231 breast): 0.836 µM
TGI (MDA-MB-231 breast): > 100 µM
GI50 (MOLT-4 leukemia): > 100 µM
TGI (MOLT-4 leukemia): > 100 µM
GI50 (786-0 renal): 0.287 µM
GI50 (HOP-62 NSCLC): 0.388 µM
TGI (HOP-62 NSCLC): > 100 µM
GI50 (OVCAR-5 ovarian): 0.574 µM
GI50 (HCT-116 colon): 0.313 µM
TGI (HCT-116 colon): > 100 µM
GI50 (CAKI-1 renal): 0.0747 µM
TGI (CAKI-1 renal): 0.83 µM
GI50 (UO-31 renal): 3.44 µM
TGI (UO-31 renal): > 100 µM
GI50 (SNB-75 CNS): 0.656 µM
TGI (SNB-75 CNS): > 100 µM
GI50 (COLO 205 colon): 0.693 µM
TGI (COLO 205 colon): > 100 µM
GI50 (MCF7 breast): 4.33 µM
TGI (MCF7 breast): > 100 µM
GI50 (U251 CNS): 0.457 µM
TGI (U251 CNS): > 100 µM
GI50 (HCT-15 colon): 0.408 µM
TGI (HCT-15 colon): > 100 µM
TGI (SK-MEL-2 melanoma): > 100 µM
GI50 (SR leukemia): 0.355 µM
TGI (SR leukemia): > 100 µM
GI50 (A549 NSCLC): 2.18 µM
TGI (A549 NSCLC): > 100 µM
GI50 (DU-145 prostate): 0.819 µM
TGI (DU-145 prostate): > 100 µM
GI50 (NCI-H23 lung): 0.753 µM
TGI (NCI-H23 lung): > 100 µM
GI50 (SF-268 CNS): 0.588 µM
TGI (SF-268 CNS): > 100 µM
GI50 (SK-MEL-28 melanoma): > 100 µM
TGI (SK-MEL-28 melanoma): > 100 µM
GI50 (A498 renal): 0.545 µM
TGI (A498 renal): > 100 µM
GI50 (UACC-257 melanoma): > 38.1 µM
TGI (UACC-257 melanoma): > 100 µM
GI50 (BT-549 breast): 0.17 µM
TGI (BT-549 breast): > 100 µM
GI50 (EKVX NSCLC): 0.342 µM
TGI (EKVX NSCLC): > 100 µM
